From patent US9586951B2 (FUJIFILM Corporation, priority 2013, dated 2017)

Each compound was assayed against T1, ATM (Homo sapiens, UniProt Q13315) (assay: ATM inhibition test (phosphorylation of Chk2 generated by ionizing radiation, AlphaScreen SureFire)). Details: phosphorylated Chk2 in NCI-H460 cells, ionizing radiation 8Gy, 1 hour after test compound treatment; read-out: ATM inhibitory activity.
T1 construct: detecting phosphorylation of Chk2 in a human non-small cell lung cancer cell line NCI-H460 (ATCC company); host or cells: NCI-H460 human non-small cell lung cancer cells
T1 sequence (Q13315 whole entry): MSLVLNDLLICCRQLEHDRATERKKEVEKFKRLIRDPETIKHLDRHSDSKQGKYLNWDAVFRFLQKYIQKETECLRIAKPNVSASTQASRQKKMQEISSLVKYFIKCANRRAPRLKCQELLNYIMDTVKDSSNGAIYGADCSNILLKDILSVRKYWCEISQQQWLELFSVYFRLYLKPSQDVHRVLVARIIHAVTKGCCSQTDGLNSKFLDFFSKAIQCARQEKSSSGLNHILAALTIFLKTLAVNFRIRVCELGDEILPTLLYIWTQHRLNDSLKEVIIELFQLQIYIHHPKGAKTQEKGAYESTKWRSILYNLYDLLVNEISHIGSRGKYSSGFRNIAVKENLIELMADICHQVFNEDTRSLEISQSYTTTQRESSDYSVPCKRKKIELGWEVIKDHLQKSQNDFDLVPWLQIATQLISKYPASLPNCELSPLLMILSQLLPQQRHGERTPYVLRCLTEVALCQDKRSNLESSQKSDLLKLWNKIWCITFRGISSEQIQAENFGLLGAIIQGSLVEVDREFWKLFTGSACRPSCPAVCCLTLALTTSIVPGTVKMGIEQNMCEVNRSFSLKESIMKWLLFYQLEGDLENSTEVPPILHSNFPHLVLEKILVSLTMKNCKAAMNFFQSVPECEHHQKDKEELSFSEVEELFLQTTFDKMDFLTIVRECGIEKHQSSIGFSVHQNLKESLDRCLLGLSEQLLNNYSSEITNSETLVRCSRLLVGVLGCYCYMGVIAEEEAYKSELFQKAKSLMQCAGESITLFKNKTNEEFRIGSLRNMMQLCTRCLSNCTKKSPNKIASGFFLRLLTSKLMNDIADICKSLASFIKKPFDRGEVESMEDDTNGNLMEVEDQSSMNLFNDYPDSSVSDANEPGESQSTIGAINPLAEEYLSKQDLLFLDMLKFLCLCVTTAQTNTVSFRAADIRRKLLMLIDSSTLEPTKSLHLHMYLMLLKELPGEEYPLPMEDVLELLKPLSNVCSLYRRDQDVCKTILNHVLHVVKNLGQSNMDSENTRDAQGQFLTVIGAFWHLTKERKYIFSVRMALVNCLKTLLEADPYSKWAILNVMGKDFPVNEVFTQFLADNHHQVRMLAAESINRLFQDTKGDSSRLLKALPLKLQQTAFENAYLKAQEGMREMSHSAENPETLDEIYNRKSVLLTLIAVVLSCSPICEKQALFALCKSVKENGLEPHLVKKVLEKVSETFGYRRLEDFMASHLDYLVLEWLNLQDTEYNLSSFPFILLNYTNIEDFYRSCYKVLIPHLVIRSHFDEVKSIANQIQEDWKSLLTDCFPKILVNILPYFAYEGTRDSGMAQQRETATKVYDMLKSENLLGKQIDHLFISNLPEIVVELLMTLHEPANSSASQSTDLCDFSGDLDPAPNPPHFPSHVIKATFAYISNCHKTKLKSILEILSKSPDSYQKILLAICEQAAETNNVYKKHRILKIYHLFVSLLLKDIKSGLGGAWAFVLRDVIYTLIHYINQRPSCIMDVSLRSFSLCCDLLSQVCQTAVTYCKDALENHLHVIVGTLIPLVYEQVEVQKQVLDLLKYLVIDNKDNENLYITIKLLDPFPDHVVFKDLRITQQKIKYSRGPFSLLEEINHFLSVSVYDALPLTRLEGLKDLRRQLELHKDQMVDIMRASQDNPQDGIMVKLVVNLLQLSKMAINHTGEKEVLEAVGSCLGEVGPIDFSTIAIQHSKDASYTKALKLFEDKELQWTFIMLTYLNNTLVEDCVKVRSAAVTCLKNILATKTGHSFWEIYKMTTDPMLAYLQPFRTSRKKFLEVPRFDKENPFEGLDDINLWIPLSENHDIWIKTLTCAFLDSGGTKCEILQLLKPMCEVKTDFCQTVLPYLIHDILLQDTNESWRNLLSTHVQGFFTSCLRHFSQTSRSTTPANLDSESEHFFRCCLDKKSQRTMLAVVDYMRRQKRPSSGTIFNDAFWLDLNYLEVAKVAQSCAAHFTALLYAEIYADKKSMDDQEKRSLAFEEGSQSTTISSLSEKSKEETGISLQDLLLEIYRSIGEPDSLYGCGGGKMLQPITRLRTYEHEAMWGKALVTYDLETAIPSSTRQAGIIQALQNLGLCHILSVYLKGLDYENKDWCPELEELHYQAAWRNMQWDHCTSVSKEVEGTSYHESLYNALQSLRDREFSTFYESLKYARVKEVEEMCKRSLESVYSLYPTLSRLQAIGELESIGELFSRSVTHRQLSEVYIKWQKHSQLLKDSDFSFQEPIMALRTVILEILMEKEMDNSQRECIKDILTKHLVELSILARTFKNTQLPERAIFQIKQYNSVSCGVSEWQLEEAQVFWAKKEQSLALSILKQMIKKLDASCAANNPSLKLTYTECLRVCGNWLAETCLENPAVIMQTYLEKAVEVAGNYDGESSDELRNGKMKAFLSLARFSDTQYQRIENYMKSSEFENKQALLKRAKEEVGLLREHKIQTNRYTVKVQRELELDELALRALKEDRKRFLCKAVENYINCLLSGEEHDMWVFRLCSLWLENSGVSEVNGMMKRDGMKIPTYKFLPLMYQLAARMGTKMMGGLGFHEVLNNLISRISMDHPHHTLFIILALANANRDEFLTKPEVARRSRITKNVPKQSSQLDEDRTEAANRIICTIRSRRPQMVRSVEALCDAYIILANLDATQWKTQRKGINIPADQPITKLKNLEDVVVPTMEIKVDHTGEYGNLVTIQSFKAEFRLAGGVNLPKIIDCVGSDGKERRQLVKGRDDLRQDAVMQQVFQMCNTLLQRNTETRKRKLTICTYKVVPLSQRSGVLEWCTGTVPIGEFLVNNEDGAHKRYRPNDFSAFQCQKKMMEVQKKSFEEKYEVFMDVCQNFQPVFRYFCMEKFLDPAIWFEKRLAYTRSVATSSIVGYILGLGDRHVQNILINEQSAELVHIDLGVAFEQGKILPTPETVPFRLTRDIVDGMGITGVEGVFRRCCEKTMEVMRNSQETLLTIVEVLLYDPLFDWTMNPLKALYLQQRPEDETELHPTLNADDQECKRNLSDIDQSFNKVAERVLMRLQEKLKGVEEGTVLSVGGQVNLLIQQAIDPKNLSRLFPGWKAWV
Assay type: cell-based
Outline: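 In NCI-H460 cells, radiation-triggered Chk2 phosphorylation (8Gy, 1 h) is detected by AlphaScreen SureFire following 1 h compound exposure.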

Row | Compound | IC50 [nM]
1 | Cc1ncsc1CNc1ccc2c(c1)Cc1cccc(-c3cc(N4CCOCC4)cc(=O)[nH]3)c1O2 [Example 2-13-2, 6-(7-(((4-Methylthiazol-5-yl)methyl)amino)-9H-xanthen-4-yl)-4-morpholino pyridin-2(1H)-one] | 100 to 500
2 | O=c1cc(N2CCOCC2)cc(-c2cccc3c2Oc2ccc(NCc4ccc(CO)o4)cc2C3)[nH]1 [Example 2-13-3, 6-(7-(((5-(Hydroxymethyl)furan-2-yl)methyl)amino)-9H-xanthen-4-yl)-4-morpholino pyridin-2(1H)-one] | 500 to 2000
3 | COc1ncccc1CNc1ccc2c(c1)Cc1cccc(-c3cc(N4CCOCC4)cc(=O)[nH]3)c1O2 [Example 2-13-12, 6-(7-(((2-Methoxypyridin-3-yl)methyl)amino)-9H-xanthen-4-yl)-4-morpholino pyridin-2(1H)-one] | 100 to 500
4 | CC(C)(C)OC(=O)N1CCC(Nc2ccc3c(c2)Cc2cccc(-c4cc(N5CCOCC5)cc(=O)[nH]4)c2O3)C(F)C1 (stereo not drawn) [Example 2-14-1, tert-Butyl 3-fluoro-4-((5-(4-morpholino-6-oxo-1,6-dihydropyridin-2-yl)-9H-xanthen-2-yl)amino) piperidine-1-carboxylate] | 100 to 500
5 | O=c1cc(N2CCOCC2)cc(-c2cccc3c2Oc2ccc(NCc4cccc(Cl)n4)cc2C3)[nH]1 [Example 2-14-2, 6-(7-(((6-Chloropyridin-2-yl)methyl)amino)-9H-xanthen-4-yl)-4-morpholino pyridin-2(1H)-one] | 100 to 500
6 | O=c1cc(N2CCOCC2)cc(-c2cccc3c2Oc2ccc(NCc4ccccc4)cc2C3)[nH]1 [Example 2-14-3, 6-(7-(Benzylamino)-9H-xanthen-4-yl)-4-morpholino pyridin-2(1H)-one] | 100 to 500
7 | COc1cccnc1CNc1ccc2c(c1)Cc1cccc(-c3cc(N4CCOCC4)cc(=O)[nH]3)c1O2 [Example 2-14-8, 6-(7-(((3-Methoxypyridin-2-yl)methyl)amino)-9H-xanthen-4-yl)-4-morpholino pyridin-2(1H)-one] | 100 to 500
8 | COc1cnccc1CNc1ccc2c(c1)Cc1cccc(-c3cc(N4CCOCC4)cc(=O)[nH]3)c1O2 [Example 2-14-9, 6-(7-(((3-Methoxypyridin-4-yl)methyl)amino)-9H-xanthen-4-yl)-4-morpholino pyridin-2(1H)-one] | 100 to 500
9 | CCCC(Nc1ccc2c(c1)Cc1cccc(-c3cc(N4CCOCC4)cc(=O)[nH]3)c1O2)c1cncc(OC)c1 (stereo not drawn) [Example 2-14-17, 6-(7-((1-(5-Methoxypyridin-3-yl)butyl)amino)-9H-xanthen-4-yl)-4-morpholino pyridin-2(1H)-one] | 100 to 500
10 | CC(Nc1ccc2c(c1)Cc1cccc(-c3cc(N4CCOCC4)cc(=O)[nH]3)c1O2)c1ccnc(F)c1 (stereo not drawn) [Example 2-14-25] | 100 to 500
11 | COc1cc(C(C)Nc2ccc3c(c2)Cc2cccc(-c4cc(N5CCOCC5)cc(=O)[nH]4)c2O3)ccn1 (stereo not drawn) [Example 2-14-26, 6-(7-((1-(2-Methoxypyridin-4-yl)ethyl)amino)-9H-xanthen-4-yl)-4-morpholino pyridin-2(1H)-one] | < 100
12 | CC(Nc1ccc2c(c1)Cc1cccc(-c3cc(N4CCOCC4)cc(=O)[nH]3)c1O2)c1cncc(Cl)c1 (stereo not drawn) [Example 2-14-27, 6-(7-((1-(5-Chloropyridin-3-yl)ethyl)amino)-9H-xanthen-4-yl)-4-morpholino pyridin-2(1H)-one] | 100 to 500
13 | Cc1cc(C(C)Nc2ccc3c(c2)Cc2cccc(-c4cc(N5CCOCC5)cc(=O)[nH]4)c2O3)ccn1 (stereo not drawn) [Example 2-14-28, 6-(7-((1-(2-Methylpyridin-4-yl)ethyl)amino)-9H-xanthen-4-yl)-4-morpholino pyridin-2(1H)-one] | 100 to 500
14 | COc1cccc(C(C)Nc2ccc3c(c2)Cc2cccc(-c4cc(N5CCOCC5)cc(=O)[nH]4)c2O3)n1 (stereo not drawn) [Example 2-14-30, 6-(7-((1-(6-Methoxypyridin-2-yl)ethyl)amino)-9H-xanthen-4-yl)-4-morpholine pyridin-2(1H)-one] | 100 to 500
15 | O=c1cc(N2CCOCC2)cc(-c2cccc3c2Oc2ccc(NCc4nccs4)cc2C3)[nH]1 [Example 2-14-31, 4-Morpholino-6-(7-((thiazol-2-ylmethyl)amino)-9H-xanthen-4-yl) pyridin-2(1H)-one] | 100 to 500
16 | O=c1cc(N2CCOCC2)cc(-c2cccc3c2Oc2ccc(NCc4ccco4)cc2C3)[nH]1 [Example 2-14-33, 6-(7-((Furan-2-ylmethyl)amino)-9H-xanthen-4-yl)-4-morpholino pyridin-2(1H)-one] | 100 to 500
17 | Cc1csc(CNc2ccc3c(c2)Cc2cccc(-c4cc(N5CCOCC5)cc(=O)[nH]4)c2O3)c1 [Example 2-14-41, 6-(7-(((4-Methylthiophen-2-yl)methyl)amino)-9H-xanthen-4-yl)-4-morpholino pyridin-2(1H)-one] | 100 to 500
18 | CC(Nc1ccc2c(c1)Cc1cccc(-c3cc(N4CCOCC4)cc(=O)[nH]3)c1O2)c1cccs1 (stereo not drawn) [Example 2-14-44, 4-Morpholino-6-(7-((1-(thiophen-2-yl)ethyl)amino)-9H-xanthen-4-yl) pyridin-2(1H)-one] | 100 to 500
19 | Cc1cccc(C(CNC(=O)OC(C)(C)C)Nc2ccc3c(c2)Cc2cccc(-c4cc(N5CCOCC5)cc(=O)[nH]4)c2O3)n1 (stereo not drawn) [Example 2-14-46] | 100 to 500

Further lines, results first:

Row | IC50 [nM] | Compound
20 | 100 to 500 | O=c1cc(N2CCOCC2)cc(-c2cccc3c2Oc2ccc(NCc4cnccc4Cl)cc2C3)[nH]1 [Example 2-14-4, 6-(7-(((4-Chloropyridin-3-yl)methyl)amino)-9H-xanthen-4-yl)-4-morpholino pyridin-2(1H)-one]
21 | 100 to 500 | Cc1ccncc1CNc1ccc2c(c1)Cc1cccc(-c3cc(N4CCOCC4)cc(=O)[nH]3)c1O2 [Example 2-14-5, 6-(7-(((4-Methylpyridin-3-yl)methyl)amino)-9H-xanthen-4-yl)-4-morpholino pyridin-2(1H)-one]
22 | 100 to 500 | O=c1cc(N2CCOCC2)cc(-c2cccc3c2Oc2ccc(NCc4cncc(OC(F)F)c4)cc2C3)[nH]1 [Example 2-14-6, 6-(7-(((5-(Difluoromethoxy)pyridin-3-yl)methyl)amino)-9H-xanthen-4-yl)-4-morpholino pyridin-2(1H)-one]
23 | 100 to 500 | O=c1cc(N2CCOCC2)cc(-c2cccc3c2Oc2ccc(NCCCc4cccnc4)cc2C3)[nH]1 [Example 2-14-14, 4-Morpholino-6-(7-((3-(pyridin-3-yl)propyl)amino)-9H-xanthen-4-yl) pyridin-2(1H)-one]
24 | 100 to 500 | Cc1cc(C)nc(CNc2ccc3c(c2)Cc2cccc(-c4cc(N5CCOCC5)cc(=O)[nH]4)c2O3)c1 [Example 2-14-15, 6-(7-(((4,6-Dimethylpyridin-2-yl)methyl)amino)-9H-xanthen-4-yl)-4-morpholino pyridin-2 (1H)-one]
25 | 100 to 500 | Cc1cncc(C(C)Nc2ccc3c(c2)Cc2cccc(-c4cc(N5CCOCC5)cc(=O)[nH]4)c2O3)c1 (stereo not drawn) [Example 2-14-22, 6-(7-((1-(5-Methylpyridin-3-yl)ethyl)amino)-9H-xanthen-4-yl)-4-morpholino pyridin-2(1H)-one]
26 | 100 to 500 | CC(Nc1ccc2c(c1)Cc1cccc(-c3cc(N4CCOCC4)cc(=O)[nH]3)c1O2)c1cncc(F)c1 (stereo not drawn) [Example 2-14-29, 6-(7-((1-(5-Fluoropyridin-3-yl)ethyl)amino)-9H-xanthan-4-yl)-4-morpholino pyridin-2(1H)-one]
27 | < 100 | N#Cc1ccc(CNc2ccc3c(c2)Cc2cccc(-c4cc(N5CCOCC5)cc(=O)[nH]4)c2O3)s1 [Example 2-14-32, 6-(7-(((5-Isocycanothiophen-2-yl)methyl)amino)-9H-xanthen-4-yl)-4-morpholino pyridin-2(1H)-one]
28 | 100 to 500 | O=c1cc(N2CCOCC2)cc(-c2cccc3c2Oc2ccc(NCc4ccoc4)cc2C3)[nH]1 [Example 2-14-34, 6-(7-((Furan-3-ylmethyl)amino)-9H-xanthen-4-yl)-4-morpholino pyridin-2(1H)-one]
29 | 100 to 500 | O=c1cc(N2CCOCC2)cc(-c2cccc3c2Oc2ccc(NCc4ccsc4)cc2C3)[nH]1 [Example 2-14-35, 4-Morpholino-6-(7-((thiophen-3-ylmethyl)amino)-9H-xanthen-4-yl) pyridin-2(1H)-one]
30 | 100 to 500 | O=c1cc(N2CCOCC2)cc(-c2cccc3c2Oc2ccc(NCc4cscn4)cc2C3)[nH]1 [Example 2-14-36, 4-Morpholino-6-(7-((thiazol-4-ylmethyl)amino)-9H-xanthen-4-yl) pyridin-2(1H)-one]
31 | 500 to 2000 | O=c1cc(N2CCOCC2)cc(-c2cccc3c2Oc2ccc(NCc4cncs4)cc2C3)[nH]1 [Example 2-14-37, 4-Morpholino-6-(7-((thiazol-5-ylmethyl)amino)-9H-xanthen-4-yl) pyridin-2(1H)-one]
32 | 500 to 2000 | Cc1ccc(CNc2ccc3c(c2)Cc2cccc(-c4cc(N5CCOCC5)cc(=O)[nH]4)c2O3)s1 [Example 2-14-40, 6-(7-(((5-Methylthiophen-2-yl)methyl)amino)-9H-xanthen-4-yl)-4-morpholino pyridin-2(1H)-one]
33 | 100 to 500 | Cc1csc(CNc2ccc3c(c2)Cc2cccc(-c4cc(N5CCOCC5)cc(=O)[nH]4)c2O3)n1 [Example 2-14-42, 6-(7-(((4-Methylthiazol-2-yl)methyl)amino)-9H-xanthen-4-yl)-4-morpholino pyridin-2(1H)-one]
34 | 100 to 500 | CC(Nc1ccc2c(c1)Cc1cccc(-c3cc(N4CCOCC4)cc(=O)[nH]3)c1O2)c1nccs1 (stereo not drawn) [Example 2-14-43, 4-Morpholino-6-(7-((1-(thiazol-2-yl)ethyl)amino)-9H-xanthen-4-yl)pyridin-2 (1H)-one]
35 | 100 to 500 | Cc1cnc(CNc2ccc3c(c2)Cc2cccc(-c4cc(N5CCOCC5)cc(=O)[nH]4)c2O3)s1 [Example 2-14-47, 6-(7-(((5-Methylthiazol-2-yl)methyl)amino)-9H-xanthen-4-yl)-4-morpholino pyridin-2(1H)-one]
36 | 100 to 500 | Cc1nccc(C(C)Nc2ccc3c(c2)Cc2cccc(-c4cc(N5CCOCC5)cc(=O)[nH]4)c2O3)n1 (stereo not drawn) [Example 2-14-48, 6-(7-((1-(2-Methylpyrimidin-4-yl)ethyl)amino)-9H-xanthen-4-yl)-4-morpholino pyridin-2 (1H)-one]
